Holding throughout (assay type): biochemical
The target of one experiment is TYK2 (Homo sapiens (Human), UniProt P29597). Briefly: JAK Caliper Enzyme Assay at 1 mM ATP, TYK2. As to the method: (§1) Compounds of the invention were evaluated by in vitro methods to determine their respective ability to inhibit the JAK kinases (TYK2, JAK1, JAK2, JAK3).
(§2) The human JAK inhibitory activity was determined by using a microfluidic assay to monitor phosphorylation of a synthetic peptide by the recombinant human kinase domain of each of the four members of the JAK family, JAK1, JAK2, JAK3 and TYK2. […] Each assay condition was optimized for enzyme concentration and room temperature incubation time to obtain a conversion rate of 20% to 30% phosphorylated peptide product. Reactions were terminated by the addition of stop buffer containing EDTA. Utilizing the LabChip 3000 mobility shift technology (Caliper Life Science), each assay reaction was sampled to determine the level of phosphorylation. This technology is separation-based, allowing direct detection of fluorescently labeled substrates and products. Separations are controlled by a combination of vacuum pressure and electric field strength optimized for each peptide substrate.
(§3) JAK Caliper Enzyme Assay at 1mM ATP
(§4) Compounds were added to a 384-well plate.
(§5) The data was collected using the HTS Well Analyzer software from Caliper Life Sciences. The data output for data analysis is the percent product converted calculated on peak height (Equation 1). % product converted=100*((product)/(product+substrate)) Equation 1: […]
(§6) The percent effect at each compound concentration was calculated based on the positive and negative control well contained within each assay plate (Equation 2). […] The negative control wells contained DMSO alone (at the same concentration as the compound wells) that was used to set the baseline activity in the assay (i.e., uninhibited JAK1, JAK2, JAK3 or TYK2). % effect=100*([…](positive control-negative control)) Equation 2: […]
(§7) The percent effect was plotted against the compound concentration compound.

The target in a further experiment is JAK3 (Homo sapiens (Human), UniProt P52333). Nature of the experiment: JAK Caliper Enzyme Assay at 1 mM ATP, JAK3. As to the method:
as §1, §2, §3, §4, §5, §6, §7

Another experiment addresses JAK1 (Homo sapiens (Human), UniProt P23458). Briefly: JAK Caliper Enzyme Assay at 1 mM ATP, JAK1. As to the method: as §1, §2, §3, §4, §5, §6, §7

Like-named read-outs stand apart in the source and are kept apart here.

Chain of JAK3 (P52333 822-1111): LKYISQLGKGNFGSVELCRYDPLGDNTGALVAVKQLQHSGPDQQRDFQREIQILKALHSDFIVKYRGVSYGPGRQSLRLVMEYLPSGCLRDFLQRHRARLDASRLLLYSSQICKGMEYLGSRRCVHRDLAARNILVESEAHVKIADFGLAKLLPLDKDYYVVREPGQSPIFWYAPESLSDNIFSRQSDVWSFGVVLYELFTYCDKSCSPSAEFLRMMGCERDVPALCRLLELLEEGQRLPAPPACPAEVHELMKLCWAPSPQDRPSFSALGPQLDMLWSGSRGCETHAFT
Chain of TYK2 (P29597 897-1176): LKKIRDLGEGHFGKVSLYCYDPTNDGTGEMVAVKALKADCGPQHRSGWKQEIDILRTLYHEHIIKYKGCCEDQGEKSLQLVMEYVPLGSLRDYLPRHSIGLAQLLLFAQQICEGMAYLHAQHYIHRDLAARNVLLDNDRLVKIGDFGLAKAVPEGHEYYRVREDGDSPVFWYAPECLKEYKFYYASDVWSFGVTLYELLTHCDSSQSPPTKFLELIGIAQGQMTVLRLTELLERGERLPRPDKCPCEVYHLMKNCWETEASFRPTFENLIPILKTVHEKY
Chain of JAK1 (P23458 875-1153): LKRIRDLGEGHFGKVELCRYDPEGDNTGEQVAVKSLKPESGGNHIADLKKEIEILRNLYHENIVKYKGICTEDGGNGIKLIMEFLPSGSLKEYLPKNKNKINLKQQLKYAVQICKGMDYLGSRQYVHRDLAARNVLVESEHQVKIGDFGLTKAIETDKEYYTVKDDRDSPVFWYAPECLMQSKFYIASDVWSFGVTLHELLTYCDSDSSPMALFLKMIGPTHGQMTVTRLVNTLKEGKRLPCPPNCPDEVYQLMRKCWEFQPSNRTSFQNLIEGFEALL

As a reminder, the IC50 is the concentration that gives 50% inhibition. Consider `N#CCC1(n2ccc(-c3nc(-c4cccnc4)cc4ncccc34)n2)CN(CC(F)(F)F)C1` [Example 171, [3-{3-[7-(pyridin-3-yl)-1,6-naphthyridin-5-yl]-1H-pyrazol-1-yl}-1-(2,2,2-trifluoroethyl)azetidin-3-yl]acetonitrile], for which the IC50 at TYK2 is 66 nM; at JAK3 it was > 10000 nM; at JAK1, 2730 nM.
Regarding `CS(=O)(=O)N1CC(CC#N)(n2ccc(-c3nc(-c4cccc(O)n4)cc4ncccc34)n2)C1` [Example 180, [3-{3-[7-(6-hydroxypyridin-2-yl)-1,6-naphthyridin-5-yl]-1H-pyrazol-1-yl}-1-(methylsulfonyl)azetidin-3-yl]acetonitrile], the half-inhibitory concentration (IC50) on TYK2 was 42 nM; at JAK3 it was > 10000 nM; on JAK1 it was 3740 nM.
Consider `CS(=O)(=O)N1CC(CC#N)(n2ccc(-c3nc(-c4ccnc(O)c4)cc4ncccc34)n2)C1` [Example 186, [3-{3-[7-(2-hydroxypyridin-4-yl)-1,6-naphthyridin-5-yl]-1H-pyrazol-1-yl}-1-(methylsulfonyl)azetidin-3-yl]acetonitrile], for which the concentration for half-maximal inhibition (IC50) on TYK2 is 74 nM; at JAK3, > 10000 nM; on JAK1, 4860 nM.
For `COc1nc(-c2cc3ncccc3c(-c3ccn([C@]4(CC#N)C[C@H](C#N)C4)n3)n2)ccc1N` [Example 223, cis-3-{3-[7-(5-amino-6-methoxypyridin-2-yl)-1,6-naphthyridin-5-yl]-1H-pyrazol-1-yl}-3-(cyanomethyl)cyclobutanecarbonitrile], in that order: 15 nM, > 10000 nM and 365 nM.
For `N#CC[C@]1(n2ccc(-c3nc(-c4ccc(N)c(C(N)=O)n4)cc4ncccc34)n2)C[C@H](C#N)C1` [Example 224, 3-amino-6-(5-{1-[cis-3-cyano-1-(cyanomethyl)cyclobutyl]-1H-pyrazol-3-yl}-1,6-naphthyridin-7-yl)pyridine-2-carboxamide], in that order: 45 nM, > 10000 nM and 1940 nM.
In the same order, the values of `N#CC[C@]1(n2ccc(-c3nc(-c4ccc(N)c(C(N)=O)n4)cc4ncccc34)n2)C[C@@H](C#N)C1` [Example 225, 3-amino-6-(5-{1-[trans-3-cyano-1-(cyanomethyl)cyclobutyl]-1H-pyrazol-3-yl}-1,6-naphthyridin-7-yl)pyridine-2-carboxamide] are 9 nM, > 10000 nM and 215 nM.
Regarding `N#CCC1(n2ccc(-c3nc(-c4ccnnc4)cc4ncccc34)n2)CN(CC(F)(F)F)C1` [Example 233, [3-{3-[7-(pyridazin-4-yl)-1,6-naphthyridin-5-yl]-1H-pyrazol-1-yl}-1-(2,2,2-trifluoroethyl)azetidin-3-yl]acetonitrile], the concentration for half-maximal inhibition (IC50) is 347 nM on TYK2, > 10000 nM at JAK3 and 9580 nM on JAK1.
For `CS(=O)(=O)Nc1ccc(-c2cc3ncccc3c(-c3ccn([C@]4(CC#N)C[C@@H](C#N)C4)n3)n2)cc1` [Example 256, N-[4-(5-{1-[cis-3-cyano-1-(cyanomethyl)cyclobutyl]-1H-pyrazol-3-yl}-1,6-naphthyridin-7-yl)phenyl]methanesulfonamide], the concentration for half-maximal inhibition (IC50) at TYK2 is 11 nM; at JAK3, 454 nM; on JAK1 it was 12 nM.
In the same order, the values of `CS(=O)(=O)Nc1ccc(-c2cc3ncccc3c(-c3ccn([C@]4(CC#N)C[C@H](C#N)C4)n3)n2)cc1` [Example 257, N-[4-(5-{1-[trans-3-cyano-1-(cyanomethyl)cyclobutyl]-1H-pyrazol-3-yl}-1,6-naphthyridin-7-yl)phenyl]methanesulfonamide] are 20 nM, 6420 nM and 110 nM.
In the same order, the values of `CS(=O)(=O)N1CC(CC#N)(n2ncc(-c3cc(-c4cc[nH]n4)cc4ncccc34)n2)C1` [Example 298, [1-(methylsulfonyl)-3-{4-[7-(1H-pyrazol-3-yl)quinolin-5-yl]-2H-1,2,3-triazol-2-yl}azetidin-3-yl]acetonitrile] are 23 nM, > 10000 nM and 594 nM.
In the same order, the values of `N#CCC1(n2ncc(-c3cc(-c4cc[nH]n4)cc4ncccc34)n2)CN(S(N)(=O)=O)C1` [Example 300, 3-(cyanomethyl)-3-{4-[7-(1H-pyrazol-3-yl)quinolin-5-yl]-2H-1,2,3-triazol-2-yl}azetidine-1-sulfonamide] are 16 nM, 3320 nM and 291 nM.
For `Cn1ncc(-c2cc(-c3cnn([C@]4(CC#N)C[C@@H](C#N)C4)n3)c3cccnc3c2)c1CO` [Example 328, trans-3-(cyanomethyl)-3-(4-{7-[5-(hydroxymethyl)-1-methyl-1H-pyrazol-4-yl]quinolin-5-yl}-2H-1,2,3-triazol-2-yl)cyclobutanecarbonitrile], the IC50 on TYK2 was 1290 nM; at JAK3 it was > 10000 nM; on JAK1, > 10000 nM.
For the molecule `Cn1cc(-c2cc(-c3cnn([C@]4(CC#N)C[C@H](C#N)C4)n3)c3cccnc3c2)c(N)n1` [Example 332, cis-3-{4-[7-(3-amino-1-methyl-1H-pyrazol-4-yl)quinolin-5-yl]-2H-1,2,3-triazol-2-yl}-3-(cyanomethyl)cyclobutanecarbonitrile], the half-inhibitory concentration (IC50) at TYK2 was 16 nM; on JAK3 it was > 10000 nM; on JAK1 it was 1690 nM.
For `Cn1cc(-c2cc(-c3cnn([C@]4(CC#N)C[C@@H](C#N)C4)n3)c3cccnc3c2)c(N)n1` [Example 333, trans-3-{4-[7-(3-amino-1-methyl-1H-pyrazol-4-yl)quinolin-5-yl]-2H-1,2,3-triazol-2-yl}-3-(cyanomethyl)cyclobutanecarbonitrile], the IC50 is 31 nM at TYK2, > 10000 nM at JAK3 and 5870 nM at JAK1.
For `N#CC[C@]1(n2ncc(-c3cc(-c4cccc(C(N)=O)n4)cc4ncccc34)n2)C[C@H](C#N)C1` [Example 349, 6-(5-{2-[trans-3-cyano-1-(cyanomethyl)cyclobutyl]-2H-1,2,3-triazol-4-yl}quinolin-7-yl)pyridine-2-carboxamide], in that order: 17 nM, > 10000 nM and 738 nM.
For `N#CC[C@]1(n2ncc(-c3cc(-c4cccc(C(N)=O)n4)cc4ncccc34)n2)C[C@H](C#N)C1` [Example 350, 6-(5-{2-[cis-3-cyano-1-(cyanomethyl)cyclobutyl]-2H-1,2,3-triazol-4-yl}quinolin-7-yl)pyridine-2-carboxamide], in that order: 7 nM, 2470 nM and 97 nM.
Regarding `N#CC[C@]1(n2ncc(-c3cc(-c4cnc(N)nc4)cc4ncccc34)n2)C[C@@H](C#N)C1` [Example 394, cis-3-{4-[7-(2-aminopyrimidin-5-yl)quinolin-5-yl]-2H-1,2,3-triazol-2-yl}-3-(cyanomethyl)cyclobutanecarbonitrile], the IC50 was 1030 nM on TYK2 (JAK Caliper enzyme assay), > 10000 nM at JAK3 (JAK Caliper enzyme assay) and 8560 nM at JAK1 (JAK Caliper enzyme assay).
With `CS(=O)(=O)N1CC(CC#N)(n2ncc(-c3cc(-c4c[nH]c5nccc-5c4)cc4ncccc34)n2)C1` [Example 415, [1-(methylsulfonyl)-3-{4-[7-(7H-pyrrolo[2,3-b]pyridin-5-yl)quinolin-5-yl]-2H-1,2,3-triazol-2-yl}azetidin-3-yl]acetonitrile], the IC50 at TYK2 (JAK Caliper enzyme assay) was 1090 nM; at JAK3 (JAK Caliper enzyme assay), > 10000 nM; at JAK1 (JAK Caliper enzyme assay), > 10000 nM.

Values taken from patent publication US11254668B2, “Pyrazolo[1,5-A]pyrazin-4-yl and related derivatives” (Pfizer Inc., priority 2017, dated 2022).
